The text below walks through data of US20260166128A1, “HUMAN AMYLIN ANALOG, AND DERIVATIVE THEREOF AND USE THEREOF” (priority 2022, published 2026).

Numbered stars: 1 amine (or outer) side, 2 acyl side, 3 side chain; on linkers, the order of the positions; unused ones are H or OH. Bridge positions count the residues as written; N and C are the ends. Square brackets hold non-standard residues; d marks the D form. Side chains are listed from the residue outwards. Peptide text beside a SMILES is read from it. * marks the point of attachment. C20 diacid = O=C(O)CCCCCCCCCCCCCCCCCCC(=O)*; C18 diacid = O=C(O)CCCCCCCCCCCCCCCCC(=O)*; γGlu = O=C(O)[C@H](CCC(=O)[*:2])N[*:1]; Hyp = O=C(O)[C@@H]1C[C@@H](O)CN1; AEEA = NCCOCCOCC(=O)O

The format of series [1] is physicochemical. The procedure:
The penicillin bottle after covering was placed in a stability test box at 40° C. Before testing, a sample was centrifuged at 10,000 rpm and 4° C. for 3 minutes, and a supernatant was taken and added into a liquid-phase sample injection bottle. The sample was detected by the liquid phase method in Example 3.

Series [2] deals with T1, human amylin receptor (Homo sapiens, UniProt O60896+P30988).
T1 construct: host or cells: CHO-K1/Ga15/AMY3 cells, further stably transfected with a CRE-luciferase plasmid
T1 sequence (P30988 25-474): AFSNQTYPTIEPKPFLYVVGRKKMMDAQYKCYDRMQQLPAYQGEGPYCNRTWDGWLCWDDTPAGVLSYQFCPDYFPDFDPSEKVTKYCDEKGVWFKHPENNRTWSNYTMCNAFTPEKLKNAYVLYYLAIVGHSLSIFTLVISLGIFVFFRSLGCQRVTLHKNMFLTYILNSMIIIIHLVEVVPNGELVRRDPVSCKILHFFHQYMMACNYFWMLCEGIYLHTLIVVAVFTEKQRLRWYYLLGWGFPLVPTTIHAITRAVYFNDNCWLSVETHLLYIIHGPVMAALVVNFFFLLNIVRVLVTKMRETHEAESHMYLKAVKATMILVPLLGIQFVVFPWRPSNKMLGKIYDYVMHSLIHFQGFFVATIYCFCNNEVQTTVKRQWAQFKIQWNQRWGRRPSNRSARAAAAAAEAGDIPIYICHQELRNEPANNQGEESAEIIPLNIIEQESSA
T1 sequence (O60896 24-148 partner): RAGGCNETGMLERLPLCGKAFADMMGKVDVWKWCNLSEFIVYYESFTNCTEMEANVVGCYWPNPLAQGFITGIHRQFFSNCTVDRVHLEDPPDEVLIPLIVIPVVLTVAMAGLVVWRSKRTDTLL
Briefly: Luciferase assay of amylin derivatives in amylin receptor/CRE-luc CHO cell line. The format is cell-based. As to conditions: CHO-K1/Ga15/AMY3 CRE-luc cells, 24 hours incubation, F12 medium containing 10% FBS; read-out: EC50.
Procedure: The experiment was intended to detect the activity or efficacy of the amylin derivatives on a human amylin receptor in vitro by luciferase assay.
50 μL of growth medium (F12 medium containing 10% FBS) was added into each well of a white 96-well plate, and the stably transfected amylin/CRE-lue CHO cells were inoculated into the white 96-well plate at a density of about 20,000 cells/well for activity determination.

A short description of series [3]: Freeze-thaw stability of derivatives (freeze-thaw yield by liquid chromatography). Type of series: physicochemical. Particulars: for Dissolution property: appearance after dissolution at 0.2 mg/ml in 20 mM phosphate buffer solution (PB) (pH 7.0); for Freeze storage property: appearance after overnight storage at −20° C. and thawing to room temperature, 0.2 mg/ml in 20 mM PB (pH 7.0); for Freeze storage yield: concentration of polypeptide after freezing and thawing / concentration before, by liquid chromatography, −20° C. overnight. A digest of the protocol: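 Lyophilised peptide derivative dissolved at 0.2 mg/ml in 20 mM phosphate buffer, pH 7.0, frozen overnight at −20° C, then thawed at room temperature. Peptide concentration before and after freeze-thaw measured by reversed-phase HPLC on centrifuged supernatant; yield = post-thaw/pre-thaw concentration.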

What is called EC50 is the concentration that produces a half-maximal response. As for `CC[C@H](C)[C@H](NC(=O)[C@@H]1CCCN1C(=O)CNC(=O)[C@H](CC(C)C)NC(=O)[C@H](CC(N)=O)NC(=O)[C@H](CC(N)=O)NC(=O)[C@H](CO)NC(=O)[C@H](CO)NC(=O)[C@H](Cc1c[nH]cn1)NC(=O)[C@H](CCCNC(=N)N)NC(=O)[C@H](CC(C)C)NC(=O)[C@H](Cc1ccccc1)NC(=O)[C@H](CC(=O)O)NC(=O)[C@H](C)NC(=O)[C@H](CC(C)C)NC(=O)[C@H](CCCNC(=N)N)NC(=O)[C@H](CCC(N)=O)NC(=O)[C@@H](NC(=O)[C@H](C)NC(=O)[C@@H]1CSSC[C@H](NC(=O)[C@@H](N)CCCCNC(=O)CC[C@H](NC(=O)CCCCCCCCCCCCCCCCCCC(=O)O)C(=O)O)C(=O)N[C@@H](CC(N)=O)C(=O)N[C@@H]([C@@H](C)O)C(=O)N[C@@H](C)C(=O)N[C@@H]([C@@H](C)O)C(=O)N1)[C@@H](C)O)C(=O)N[C@@H](CC(C)C)C(=O)N1CCC[C@H]1C(=O)N1CCC[C@H]1C(=O)N[C@H](C(=O)N[C@@H](CC(N)=O)C(=O)N[C@H](C(=O)NCC(=O)N[C@@H](CO)C(=O)N[C@@H](CC(N)=O)C(=O)N[C@H](C(=O)N1C[C@H](O)C[C@H]1C(N)=O)[C@@H](C)O)C(C)C)[C@@H](C)O` [PD070] (H-K([γGlu-C20 diacid])CNTATCATQRLADFLRHSSNNLGPILPPTNVGSNT[Hyp]-NH2; disulfide 2-7), the thermal stability entry in series [1] is “extremely low decrease percentage of protein concentration”. In addition, the EC50 in series [2] was 0.038 nM.

Turning to `CC[C@H](C)[C@H](NC(=O)[C@@H]1CCCN1C(=O)CNC(=O)[C@H](CC(C)C)NC(=O)[C@H](CC(N)=O)NC(=O)[C@H](CC(N)=O)NC(=O)[C@H](CCCCNC(=O)COCCOCCNC(=O)CC[C@H](NC(=O)CCCCCCCCCCCCCCCCC(=O)O)C(=O)O)NC(=O)[C@H](CO)NC(=O)[C@H](Cc1c[nH]cn1)NC(=O)[C@H](CCCNC(=N)N)NC(=O)[C@H](CC(C)C)NC(=O)[C@H](Cc1ccccc1)NC(=O)[C@H](CC(=O)O)NC(=O)[C@H](C)NC(=O)[C@H](CC(C)C)NC(=O)[C@H](CCCNC(=N)N)NC(=O)[C@H](CCC(N)=O)NC(=O)[C@@H](NC(=O)[C@H](C)NC(=O)[C@@H]1CSSC[C@H](NC(=O)[C@@H](N)CCCNC(=N)N)C(=O)N[C@@H](CC(N)=O)C(=O)N[C@@H]([C@@H](C)O)C(=O)N[C@@H](C)C(=O)N[C@@H]([C@@H](C)O)C(=O)N1)[C@@H](C)O)C(=O)N[C@@H](CC(C)C)C(=O)N1CCC[C@H]1C(=O)N1CCC[C@H]1C(=O)N[C@H](C(=O)N[C@@H](CC(N)=O)C(=O)N[C@H](C(=O)NCC(=O)N[C@@H](CO)C(=O)N[C@@H](CC(N)=O)C(=O)N[C@H](C(=O)N1C[C@H](O)C[C@H]1C(N)=O)[C@@H](C)O)C(C)C)[C@@H](C)O` [PD117] (H-RCNTATCATQRLADFLRHSK([AEEA-γGlu-C18 diacid])NNLGPILPPTNVGSNT[Hyp]-NH2; disulfide 2-7 (inferred); N-terminus assumed), in series [3], the Dissolution property result is “Clear”, the Freeze storage property result is “Clear” and the Freeze storage yield is 93.49%. Also, in series [2], the EC50 is 0.014 nM.

`CC[C@H](C)[C@H](NC(=O)[C@@H]1CCCN1C(=O)[C@H](CCCCNC(=O)COCCOCCNC(=O)CC[C@H](NC(=O)CCCCCCCCCCCCCCCCC(=O)O)C(=O)O)NC(=O)[C@H](CC(C)C)NC(=O)[C@H](CC(N)=O)NC(=O)[C@H](CC(N)=O)NC(=O)[C@H](CO)NC(=O)[C@H](CO)NC(=O)[C@H](Cc1c[nH]cn1)NC(=O)[C@H](CCCNC(=N)N)NC(=O)[C@H](CC(C)C)NC(=O)[C@H](Cc1ccccc1)NC(=O)[C@H](CC(=O)O)NC(=O)[C@H](C)NC(=O)[C@H](CC(C)C)NC(=O)[C@H](CCCNC(=N)N)NC(=O)[C@H](CCC(N)=O)NC(=O)[C@@H](NC(=O)[C@H](C)NC(=O)[C@@H]1CSSC[C@H](NC(=O)[C@@H](N)CCCNC(=N)N)C(=O)N[C@@H](CC(N)=O)C(=O)N[C@@H]([C@@H](C)O)C(=O)N[C@@H](C)C(=O)N[C@@H]([C@@H](C)O)C(=O)N1)[C@@H](C)O)C(=O)N[C@@H](CC(C)C)C(=O)N1CCC[C@H]1C(=O)N1CCC[C@H]1C(=O)N[C@H](C(=O)N[C@@H](CC(N)=O)C(=O)N[C@H](C(=O)NCC(=O)N[C@@H](CO)C(=O)N[C@@H](CC(N)=O)C(=O)N[C@H](C(=O)N1C[C@H](O)C[C@H]1C(N)=O)[C@@H](C)O)C(C)C)[C@@H](C)O` [PD108] (H-RCNTATCATQRLADFLRHSSNNLK([AEEA-γGlu-C18 diacid])PILPPTNVGSNT[Hyp]-NH2; disulfide 2-7 (inferred); N-terminus assumed): in series [3], the Dissolution property result is “Clear”, the Freeze storage property entry is on record as “Clear” and the Freeze storage yield is reported as 96.86%. For the same compound, the EC50 in series [2] came to 0.028 nM.

On to `CC[C@H](C)[C@H](NC(=O)[C@H](CCCCNC(=O)COCCOCCNC(=O)CC[C@H](NC(=O)CCCCCCCCCCCCCCCCCCC(=O)O)C(=O)O)NC(=O)CNC(=O)[C@H](CC(C)C)NC(=O)[C@H](CC(N)=O)NC(=O)[C@H](CC(N)=O)NC(=O)[C@H](CO)NC(=O)[C@H](CO)NC(=O)[C@H](Cc1c[nH]cn1)NC(=O)[C@H](CCCNC(=N)N)NC(=O)[C@H](CC(C)C)NC(=O)[C@H](Cc1ccccc1)NC(=O)[C@H](CC(=O)O)NC(=O)[C@H](C)NC(=O)[C@H](CC(C)C)NC(=O)[C@H](CCCNC(=N)N)NC(=O)[C@H](CCC(N)=O)NC(=O)[C@@H](NC(=O)[C@H](C)NC(=O)[C@@H]1CSSC[C@H](NC(=O)[C@@H](N)CCCNC(=N)N)C(=O)N[C@@H](CC(N)=O)C(=O)N[C@@H]([C@@H](C)O)C(=O)N[C@@H](C)C(=O)N[C@@H]([C@@H](C)O)C(=O)N1)[C@@H](C)O)C(=O)N[C@@H](CC(C)C)C(=O)N1CCC[C@H]1C(=O)N1CCC[C@H]1C(=O)N[C@H](C(=O)N[C@@H](CC(N)=O)C(=O)N[C@H](C(=O)NCC(=O)N[C@@H](CO)C(=O)N[C@@H](CC(N)=O)C(=O)N[C@H](C(=O)N1C[C@H](O)C[C@H]1C(N)=O)[C@@H](C)O)C(C)C)[C@@H](C)O` [PD120] (H-RCNTATCATQRLADFLRHSSNNLGK([AEEA-γGlu-C20 diacid])ILPPTNVGSNT[Hyp]-NH2; disulfide 2-7 (inferred); N-terminus assumed), for which, in series [3], the Dissolution property entry is “Clear”, the Freeze storage property result was “Clear” and the Freeze storage yield came to 103.41%. Besides, in series [2], the EC50 was 0.023 nM.
